In paper PMC5330486 (PLoS Biology, 2017):

Biological target: T1, AsfvPolX (ASFV DNA Polymerase X) (African swine fever virus BA71V, UniProt P42494)
T1 construct: gene Ba71V-97
Test: biochemical
Assay type: binding
Settings: for AsfvPolX: no DNA stated, buffer, metal and temperature not stated

T1 sequence (P42494 whole entry, looked up): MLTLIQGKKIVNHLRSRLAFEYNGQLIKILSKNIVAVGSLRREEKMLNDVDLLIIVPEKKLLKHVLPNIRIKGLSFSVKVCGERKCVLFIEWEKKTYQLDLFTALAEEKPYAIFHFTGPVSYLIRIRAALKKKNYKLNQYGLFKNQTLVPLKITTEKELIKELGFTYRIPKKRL

Structure (SMILES)	Kd	other results
Nc1ncnc2c1ncn2[C@H]1C[C@H](O)[C@@H](COP(=O)(O)OP(=O)(O)OP(=O)(O)O)O1 [dATP]		AsfvPolX: 0.66 ± 0.05 µM
Nc1ccn([C@H]2C[C@H](O)[C@@H](COP(=O)(O)OP(=O)(O)OP(=O)(O)O)O2)c(=O)n1 [dCTP]	6.85 ± 0.55 µM	
Nc1nc2c(ncn2[C@H]2C[C@H](O)[C@@H](COP(=O)(O)OP(=O)(O)OP(=O)(O)O)O2)c(=O)[nH]1 [dGTP]		AsfvPolX (structures are ternary complexes with gap(P) DNA and Mn2+): 0.37+0.02 μM
Cc1cn([C@H]2C[C@H](O)[C@@H](COP(=O)(O)OP(=O)(O)OP(=O)(O)O)O2)c(=O)[nH]c1=O [dTTP]	9.09 ± 0.89 µM	
